Results from the supplement of paper PMC10307832.

Experiments:
Assay in all cases: relative viability (nuclei count vs DMSO), 5 days (fraction); higher = more cells survive
[1] = compound: CCn1c(-c2nonc2N)nc2cnc(Oc3cccc(NC(=O)c4ccc(OCCN5CCOCC5)cc4)c3)cc21 + CC(=O)Nc1cccc(-n2c(=O)n(C3CC3)c(=O)c3c(Nc4ccc(I)cc4F)n(C)c(=O)c(C)c32)c1 [Trametinib] (partner 0.02 µM)
Outline: (§1)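 The day after seeding in 1536-well plates, lung cancer cell lines were treated by pin tool with a single drug, or with a fixed anchor-drug dose together with five library-drug doses (not always all listed) in √10 steps. After 5 days, a combined fix-and-stain solution (final 0.05% Triton X-100, 1% formaldehyde, 1 ug/ml Hoechst) was added. Nuclei counted on 4× images gave relative viability as treated counts over vehicle counts, reported as the median of duplicate plates.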

[2] = compound: N=C1NC(=O)/C(=C/c2ccc(O)cc2)S1 [Mirin] + O=C(c1cc(Cc2n[nH]c(=O)c3ccccc23)ccc1F)N1CCN(C(=O)C2CC2)CC1 [Olaparib] (partner 8 µM)
Outline: as §1

[3] = compound: CCC1=CN=CN=C1N2CCN(CC2)CC3=NC4=C(N3)C=C(C=C4)C(F)(F)F + CC(=O)Nc1cccc(-n2c(=O)n(C3CC3)c(=O)c3c(Nc4ccc(I)cc4F)n(C)c(=O)c(C)c32)c1 [Trametinib] (partner 0.02 µM)
Outline: as §1

[4] = compound: N=C1NC(=O)/C(=C/c2ccc(O)cc2)S1 [Mirin] + NC(=O)Nc1cc(-c2cccc(F)c2)sc1C(=O)N[C@H]1CCCNC1 [AZD7762] (partner 0.2 µM)
Outline: as §1

NCI-H2170
relative viability ([1]; first compound 0.04 µM): 0.885 | relative viability ([1]; first compound 0.1265 µM): 0.941 | relative viability ([1]; first compound 0.4 µM): 0.96 | relative viability ([1]; first compound 1.265 µM): 0.926 | relative viability ([1]; first compound 4 µM): 0.974 | relative viability ([2]; first compound 0.25 µM): 0.582 | relative viability ([2]; first compound 0.7906 µM): 0.548 | relative viability ([2]; first compound 2.5 µM): 0.576 | relative viability ([2]; first compound 7.906 µM): 0.597 | relative viability ([2]; first compound 25 µM): 0.601 | relative viability ([3]; first compound 0.04 µM): 0.946 | relative viability ([3]; first compound 0.1265 µM): 0.911 | relative viability ([3]; first compound 0.4 µM): 0.873 | relative viability ([3]; first compound 1.265 µM): 0.777 | relative viability ([3]; first compound 4 µM): 0.851 | relative viability ([4]; first compound 0.25 µM): 0.926 | relative viability ([4]; first compound 0.7906 µM): 0.752 | relative viability ([4]; first compound 2.5 µM): 0.823 | relative viability ([4]; first compound 7.906 µM): 0.849 | relative viability ([4]; first compound 25 µM): 0.848

NCI-H2342
relative viability ([1]; first compound 0.04 µM): 0.803 | relative viability ([1]; first compound 0.1265 µM): 0.85 | relative viability ([1]; first compound 0.4 µM): 0.989 | relative viability ([1]; first compound 1.265 µM): 0.621 | relative viability ([1]; first compound 4 µM): 0.801 | relative viability ([2]; first compound 0.25 µM): 0.441 | relative viability ([2]; first compound 0.7906 µM): 0.442 | relative viability ([2]; first compound 2.5 µM): 0.427 | relative viability ([2]; first compound 25 µM): 0.368 | relative viability ([3]; first compound 0.04 µM): 0.748 | relative viability ([3]; first compound 0.1265 µM): 0.906 | relative viability ([3]; first compound 0.4 µM): 0.826 | relative viability ([3]; first compound 1.265 µM): 0.503 | relative viability ([3]; first compound 4 µM): 0.511 | relative viability ([4]; first compound 0.25 µM): 0.581 | relative viability ([4]; first compound 0.7906 µM): 0.451 | relative viability ([4]; first compound 2.5 µM): 0.487 | relative viability ([4]; first compound 25 µM): 0.459

NCI-H2347
relative viability ([1]; first compound 0.04 µM): 0.261 | relative viability ([1]; first compound 0.1265 µM): 0.279 | relative viability ([1]; first compound 0.4 µM): 0.298 | relative viability ([1]; first compound 1.265 µM): 0.238 | relative viability ([1]; first compound 4 µM): 0.262 | relative viability ([2]; first compound 0.25 µM): 0.639 | relative viability ([2]; first compound 0.7906 µM): 0.639 | relative viability ([2]; first compound 2.5 µM): 0.602 | relative viability ([2]; first compound 7.906 µM): 0.612 | relative viability ([2]; first compound 25 µM): 0.588 | relative viability ([3]; first compound 0.04 µM): 0.295 | relative viability ([3]; first compound 0.1265 µM): 0.333 | relative viability ([3]; first compound 0.4 µM): 0.313 | relative viability ([3]; first compound 1.265 µM): 0.249 | relative viability ([3]; first compound 4 µM): 0.293 | relative viability ([4]; first compound 0.25 µM): 0.946 | relative viability ([4]; first compound 0.7906 µM): 0.786 | relative viability ([4]; first compound 2.5 µM): 0.861 | relative viability ([4]; first compound 7.906 µM): 0.669 | relative viability ([4]; first compound 25 µM): 0.704

NCI-H2405
relative viability ([1]; first compound 0.04 µM): 0.537 | relative viability ([1]; first compound 0.1265 µM): 0.385 | relative viability ([1]; first compound 0.4 µM): 0.311 | relative viability ([1]; first compound 1.265 µM): 0.253 | relative viability ([1]; first compound 4 µM): 0.26 | relative viability ([2]; first compound 0.25 µM): 0.916 | relative viability ([2]; first compound 2.5 µM): 0.898 | relative viability ([2]; first compound 7.906 µM): 0.97 | relative viability ([2]; first compound 25 µM): 0.838 | relative viability ([3]; first compound 0.04 µM): 0.676 | relative viability ([3]; first compound 0.1265 µM): 0.666 | relative viability ([3]; first compound 0.4 µM): 0.624 | relative viability ([3]; first compound 4 µM): 0.68 | relative viability ([4]; first compound 0.25 µM): 0.747 | relative viability ([4]; first compound 2.5 µM): 0.798 | relative viability ([4]; first compound 7.906 µM): 0.734 | relative viability ([4]; first compound 25 µM): 0.599

NCI-H3122
relative viability ([1]; first compound 0.04 µM): 0.175 | relative viability ([1]; first compound 0.1265 µM): 0.189 | relative viability ([1]; first compound 0.4 µM): 0.254 | relative viability ([1]; first compound 1.265 µM): 0.226 | relative viability ([1]; first compound 4 µM): 0.247 | relative viability ([2]; first compound 0.25 µM): 0.691 | relative viability ([2]; first compound 0.7906 µM): 0.667 | relative viability ([2]; first compound 2.5 µM): 0.566 | relative viability ([2]; first compound 7.906 µM): 0.623 | relative viability ([2]; first compound 25 µM): 0.664 | relative viability ([3]; first compound 0.04 µM): 0.19 | relative viability ([3]; first compound 0.1265 µM): 0.248 | relative viability ([3]; first compound 0.4 µM): 0.201 | relative viability ([3]; first compound 1.265 µM): 0.219 | relative viability ([3]; first compound 4 µM): 0.184 | relative viability ([4]; first compound 0.25 µM): 1.01 | relative viability ([4]; first compound 0.7906 µM): 0.954 | relative viability ([4]; first compound 2.5 µM): 0.927 | relative viability ([4]; first compound 7.906 µM): 1.07 | relative viability ([4]; first compound 25 µM): 1.1

PC-3 [JPC-3]
relative viability ([1]; first compound 0.04 µM): 0.693 | relative viability ([1]; first compound 0.1265 µM): 0.589 | relative viability ([1]; first compound 0.4 µM): 0.591 | relative viability ([1]; first compound 1.265 µM): 0.598 | relative viability ([1]; first compound 4 µM): 0.537 | relative viability ([2]; first compound 0.25 µM): 1.14 | relative viability ([2]; first compound 0.7906 µM): 1.23 | relative viability ([2]; first compound 2.5 µM): 1.19 | relative viability ([2]; first compound 7.906 µM): 1.21 | relative viability ([2]; first compound 25 µM): 1.23 | relative viability ([3]; first compound 0.1265 µM): 0.632 | relative viability ([3]; first compound 0.4 µM): 0.671 | relative viability ([3]; first compound 1.265 µM): 0.634 | relative viability ([3]; first compound 4 µM): 0.682 | relative viability ([4]; first compound 0.25 µM): 0.88 | relative viability ([4]; first compound 0.7906 µM): 0.782 | relative viability ([4]; first compound 2.5 µM): 0.896 | relative viability ([4]; first compound 7.906 µM): 0.843 | relative viability ([4]; first compound 25 µM): 0.989

PC-14
relative viability ([1]; first compound 0.04 µM): 0.632 | relative viability ([1]; first compound 0.1265 µM): 0.379 | relative viability ([1]; first compound 0.4 µM): 0.468 | relative viability ([1]; first compound 1.265 µM): 0.426 | relative viability ([1]; first compound 4 µM): 0.396 | relative viability ([2]; first compound 0.25 µM): 0.25 | relative viability ([2]; first compound 0.7906 µM): 0.34 | relative viability ([2]; first compound 2.5 µM): 0.313 | relative viability ([2]; first compound 7.906 µM): 0.308 | relative viability ([2]; first compound 25 µM): 0.271 | relative viability ([3]; first compound 0.04 µM): 0.828 | relative viability ([3]; first compound 0.1265 µM): 0.808 | relative viability ([3]; first compound 0.4 µM): 0.714 | relative viability ([3]; first compound 1.265 µM): 0.71 | relative viability ([3]; first compound 4 µM): 0.779 | relative viability ([4]; first compound 0.25 µM): 0.389 | relative viability ([4]; first compound 0.7906 µM): 0.481 | relative viability ([4]; first compound 2.5 µM): 0.365 | relative viability ([4]; first compound 7.906 µM): 0.313 | relative viability ([4]; first compound 25 µM): 0.429

RERF-LC-KJ
relative viability ([1]; first compound 0.04 µM): 0.862 | relative viability ([1]; first compound 0.1265 µM): 0.898 | relative viability ([1]; first compound 0.4 µM): 0.826 | relative viability ([1]; first compound 1.265 µM): 0.562 | relative viability ([1]; first compound 4 µM): 0.589 | relative viability ([2]; first compound 0.25 µM): 1.03 | relative viability ([2]; first compound 0.7906 µM): 1.12 | relative viability ([2]; first compound 2.5 µM): 0.941 | relative viability ([2]; first compound 7.906 µM): 0.972 | relative viability ([2]; first compound 25 µM): 0.875 | relative viability ([3]; first compound 0.04 µM): 0.795 | relative viability ([3]; first compound 0.1265 µM): 0.798 | relative viability ([3]; first compound 0.4 µM): 0.821 | relative viability ([3]; first compound 1.265 µM): 0.76 | relative viability ([3]; first compound 4 µM): 0.774 | relative viability ([4]; first compound 0.25 µM): 1.17 | relative viability ([4]; first compound 0.7906 µM): 0.878 | relative viability ([4]; first compound 2.5 µM): 0.953 | relative viability ([4]; first compound 7.906 µM): 0.814 | relative viability ([4]; first compound 25 µM): 1.08

SW 900
relative viability ([1]; first compound 0.04 µM): 0.602 | relative viability ([1]; first compound 0.1265 µM): 0.802 | relative viability ([1]; first compound 0.4 µM): 0.828 | relative viability ([1]; first compound 1.265 µM): 0.918 | relative viability ([1]; first compound 4 µM): 0.849 | relative viability ([2]; first compound 0.25 µM): 0.842 | relative viability ([2]; first compound 0.7906 µM): 0.959 | relative viability ([2]; first compound 2.5 µM): 0.848 | relative viability ([2]; first compound 7.906 µM): 0.913 | relative viability ([2]; first compound 25 µM): 0.767 | relative viability ([3]; first compound 0.04 µM): 0.545 | relative viability ([3]; first compound 0.1265 µM): 0.679 | relative viability ([3]; first compound 0.4 µM): 0.857 | relative viability ([3]; first compound 4 µM): 0.7 | relative viability ([4]; first compound 0.25 µM): 0.67 | relative viability ([4]; first compound 0.7906 µM): 0.669 | relative viability ([4]; first compound 2.5 µM): 0.669 | relative viability ([4]; first compound 7.906 µM): 0.518 | relative viability ([4]; first compound 25 µM): 0.641
